Where “and” joins values, the source holds several entries; their conditions need not be identical. Equal values may be shown once. Toxic doses and inconclusive results are not listed.
Test system: L1210 leukemia ip in BDF1 mice, survival T/C
Assay: NCI In Vivo Anticancer Drug Screen. Data for tumor model L1210 Leukemia (intraperitoneal) in B6D2F1 (BDF1) mice
Details: endpoint: mean survival time, higher = longer survival
Method in brief: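 Transplantable tumor model; survival measured in treated vs vehicle control mice. Value = treated/control.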

[1] = dose: 75.0 mg/kg/injection, schedule: Q01DX001 (ip), vehicle: saline
[2] = dose: 150.0 mg/kg/injection, schedule: Q01DX001 (ip), vehicle: saline
[3] = dose: 12.5 mg/kg/injection, schedule: Q01DX009 (ip), vehicle: saline with Tween-80
[4] = dose: 25.0 mg/kg/injection, schedule: Q01DX009 (ip), vehicle: saline with Tween-80
[5] = dose: 50.0 mg/kg/injection, schedule: Q01DX009 (ip), vehicle: saline with Tween-80
[6] = dose: 100.0 mg/kg/injection, schedule: Q04DX003 (ip), vehicle: saline with Tween-80
[7] = dose: 200.0 mg/kg/injection, schedule: Q04DX003 (ip), vehicle: saline with Tween-80
[8] = dose: 400.0 mg/kg/injection, schedule: Q04DX003 (ip), vehicle: saline with Tween-80
[9] = dose: 25.0 mg/kg/injection, schedule: Q04DX003 (ip), vehicle: Klucel (hydroxypropylcellulose) (HPC)
[10] = dose: 50.0 mg/kg/injection, schedule: Q01DX009 (ip), vehicle: Klucel (hydroxypropylcellulose) (HPC)
[11] = dose: 50.0 mg/kg/injection, schedule: Q04DX003 (ip), vehicle: Klucel (hydroxypropylcellulose) (HPC)
[12] = dose: 100.0 mg/kg/injection, schedule: Q04DX003 (ip), vehicle: Klucel (hydroxypropylcellulose) (HPC)
[13] = dose: 100.0 mg/kg/injection, schedule: Q01DX009 (ip), vehicle: Klucel (hydroxypropylcellulose) (HPC)
[14] = dose: 200.0 mg/kg/injection, schedule: Q01DX009 (ip), vehicle: Klucel (hydroxypropylcellulose) (HPC)
[15] = dose: 200.0 mg/kg/injection, schedule: Q04DX003 (ip), vehicle: Klucel (hydroxypropylcellulose) (HPC)
[16] = dose: 100.0 mg/kg/injection, schedule: Q04DX002 (ip), vehicle: saline with Tween-80
[17] = dose: 200.0 mg/kg/injection, schedule: Q04DX002 (ip), vehicle: saline with Tween-80
[18] = dose: 50.0 mg/kg/injection, schedule: Q01DX001 (ip), vehicle: saline
[19] = dose: 100.0 mg/kg/injection, schedule: Q01DX001 (ip), vehicle: saline
[20] = dose: 200.0 mg/kg/injection, schedule: Q01DX001 (ip), vehicle: saline
[21] = dose: 400.0 mg/kg/injection, schedule: Q01DX001 (ip), vehicle: saline
[22] = dose: 100.0 mg/kg/injection, schedule: Q04DX003 (ip), vehicle: other
[23] = dose: 200.0 mg/kg/injection, schedule: Q04DX003 (ip), vehicle: other
[24] = dose: 400.0 mg/kg/injection, schedule: Q04DX003 (ip), vehicle: other
[25] = dose: 400.0 mg/kg/injection, schedule: Q01DX009 (ip), vehicle: Klucel (hydroxypropylcellulose) (HPC)
[26] = dose: 100.0 mg/kg/injection, schedule: Q04DX002 (ip), vehicle: Klucel (hydroxypropylcellulose) (HPC)
[27] = dose: 200.0 mg/kg/injection, schedule: Q04DX002 (ip), vehicle: Klucel (hydroxypropylcellulose) (HPC)
[28] = dose: 400.0 mg/kg/injection, schedule: Q04DX002 (ip), vehicle: Klucel (hydroxypropylcellulose) (HPC)

## CC/C=C(\CCC)C1(CC)C(=O)NC(=O)NC1=O
[1]
  T/C: 94 % of control
[2]
  T/C: 105 % of control

## O=C(C[n+]1ccccc1)N/N=C/c1ccccc1O
[3]
  T/C: 86 % of control
[4]
  T/C: 86 % of control
[5]
  T/C: 96 % of control

## OCCN1C(c2ccccc2)C1c1ccccc1 (centres undefined)
[6]
  T/C: 102 % of control
[7]
  T/C: 93 % of control
[8]
  T/C: 97 % of control

## CCCCCCCCN(c1ccc(C(=O)NC(CCC(=O)OCC)C(=O)OCC)cc1)S(=O)(=O)c1ccc(C)cc1 (centres undefined)
[3]
  T/C: 95 % of control
[4]
  T/C: 95 % of control
[5]
  T/C: 95 % of control

## CS(=O)(=O)OCCCCCCCCOS(C)(=O)=O
dose: 3.0 mg/kg/injection, schedule: Q01DX009 (ip), vehicle: Klucel (hydroxypropylcellulose) (HPC)
  T/C: 100 % of control
dose: 5.0 mg/kg/injection, schedule: Q01DX009 (ip), vehicle: Klucel (hydroxypropylcellulose) (HPC)
  T/C: 102 % of control
dose: 11.0 mg/kg/injection, schedule: Q01DX009 (ip), vehicle: Klucel (hydroxypropylcellulose) (HPC)
  T/C: 118 % of control
dose: 12.5 mg/kg/injection, schedule: Q01DX009 (ip), vehicle: Klucel (hydroxypropylcellulose) (HPC)
  T/C: 108 % of control
dose: 25.0 mg/kg/injection, schedule: Q01DX009 (ip), vehicle: Klucel (hydroxypropylcellulose) (HPC)
  T/C: 114 % of control
[9]
  T/C: 112 % of control
dose: 37.5 mg/kg/injection, schedule: Q01DX009 (ip), vehicle: Klucel (hydroxypropylcellulose) (HPC)
  T/C: 163 % of control
[10]
  T/C: 93 % of control
[11]
  T/C: 116 % of control
[12]
  T/C: 116 % of control

## CCOC(=O)/C(C#N)=C\c1ccccc1Cl
[10]
  T/C: 98 % of control
[13]
  T/C: 95 % of control
[12]
  T/C: 91 % of control
[14]
  T/C: 100 % of control
[15]
  T/C: 99 % of control

## O=C1c2ccccc2-c2c(Br)cccc21
dose: 50.0 mg/kg/injection, schedule: Q04DX002 (ip), vehicle: saline with Tween-80
  T/C: 91 % of control
[16]
  T/C: 91 % of control
[17]
  T/C: 102 % of control

## COc1ccc(C)cc1CCCO
[18]
  T/C: 101 % of control
[19]
  T/C: 101 % of control
[20]
  T/C: 101 % of control
[21]
  T/C: 93 % of control

## CCC12CC(Br)C(C1)OC2=O (centres undefined)
[22]
  T/C: 100 % of control
[23]
  T/C: 95 % of control
[24]
  T/C: 94 % of control

## O=C(O)c1ccccc1C(=O)c1cccs1
dose: 100.0 mg/kg/injection, schedule: Q01DX009 (ip), vehicle: saline
  T/C: 94 % of control
[22]
  T/C: 113 % of control
dose: 200.0 mg/kg/injection, schedule: Q01DX009 (ip), vehicle: saline
  T/C: 97 % of control
[23]
  T/C: 105 % of control
dose: 400.0 mg/kg/injection, schedule: Q01DX009 (ip), vehicle: saline
  T/C: 96 % of control
[24]
  T/C: 94 % of control

## COc1ccc(OC(=O)Nc2ccccc2Cl)cc1
[13]
  T/C: 94 % of control
[12]
  T/C: 95 % of control
[14]
  T/C: 103 % of control
[15]
  T/C: 104 % of control
[25]
  T/C: 103 % of control
dose: 400.0 mg/kg/injection, schedule: Q04DX003 (ip), vehicle: Klucel (hydroxypropylcellulose) (HPC)
  T/C: 101 % of control

## CNC/C(C)=C/Br
dose: 100.0 mg/kg/injection, schedule: Q04DX003 (ip), vehicle: acetone
  T/C: 101 % of control
[6]
  T/C: 103 % of control
dose: 200.0 mg/kg/injection, schedule: Q04DX003 (ip), vehicle: acetone
  T/C: 92 % of control
[7]
  T/C: 97 % of control

## Cc1ccc(S(=O)(=O)Nc2ccc(C#N)c3ccccc23)cc1
dose: 100.0 mg/kg/injection, schedule: Q01DX009 (ip), vehicle: saline with Tween-80
  T/C: 92 % of control
[6]
  T/C: 90 % of control
dose: 200.0 mg/kg/injection, schedule: Q01DX009 (ip), vehicle: saline with Tween-80
  T/C: 89 % of control
[7]
  T/C: 95 % of control
dose: 400.0 mg/kg/injection, schedule: Q01DX009 (ip), vehicle: saline with Tween-80
  T/C: 89 % of control
[8]
  T/C: 87 % of control

## CC(C)C1(Cc2ccccc2)C(=O)NC(=S)NC1=O
[1]
  T/C: 95 % of control
[2]
  T/C: 93 % of control

## N#CCCC(CCC#N)c1cccc(C(CCC#N)CCC#N)n1
dose: 12.5 mg/kg/injection, schedule: Q04DX003 (ip), vehicle: Klucel (hydroxypropylcellulose) (HPC)
  T/C: 96 % of control
[9]
  T/C: 95 % of control
[11]
  T/C: 90 % of control
[12]
  T/C: 96 % of control

## COc1cc(C(=O)Nc2ccccc2SC)cc(OC)c1OC
[26]
  T/C: 100 % of control
[27]
  T/C: 97 % of control
[28]
  T/C: 90 % of control

## CCCCC#CC(=O)OCCC(C)C
[6]
  T/C: 94 % of control
[7]
  T/C: 90 % of control
[8]
  T/C: 94 % of control

## CCN(CC)CCOc1cccc(OC)c1
dose: 25.0 mg/kg/injection, schedule: Q01DX009 (ip), vehicle: saline
  T/C: 95 % of control
dose: 50.0 mg/kg/injection, schedule: Q01DX009 (ip), vehicle: saline
  T/C: 96 % of control
dose: 75.0 mg/kg/injection, schedule: Q01DX009 (ip), vehicle: saline
  T/C: 95 % of control and 108 % of control

## C[n+]1cccc(S(=O)(=O)[O-])c1
dose: 100.0 mg/kg/injection, schedule: Q04DX003 (ip), vehicle: saline
  T/C: 104 % of control
dose: 200.0 mg/kg/injection, schedule: Q04DX003 (ip), vehicle: saline
  T/C: 101 % of control
dose: 400.0 mg/kg/injection, schedule: Q04DX003 (ip), vehicle: saline
  T/C: 101 % of control

## NC(Cc1ccccc1)C(=O)CCl (centres undefined)
dose: 25.0 mg/kg/injection, schedule: Q04DX002 (ip), vehicle: saline
  T/C: 105 % of control
dose: 50.0 mg/kg/injection, schedule: Q04DX002 (ip), vehicle: saline
  T/C: 108 % of control

## COC(=O)C1C2C=CC(C3CCC23)C1C(=O)OC (centres undefined)
[6]
  T/C: 92 % of control
[7]
  T/C: 91 % of control
[8]
  T/C: 94 % of control

## COc1cc(/C=C/C(=O)c2ccc3ccccc3c2)cc(OC)c1OC
[16]
  T/C: 97 % of control
[17]
  T/C: 107 % of control
dose: 400.0 mg/kg/injection, schedule: Q04DX002 (ip), vehicle: saline with Tween-80
  T/C: 87 % of control

## N#CC(C#N)c1ccc(C(C#N)C#N)cc1
[18]
  T/C: 103 % of control
[19]
  T/C: 122 % of control
[20]
  T/C: 103 % of control

## O=S(=O)(c1ccc(Cl)cc1)C(Cl)(Cl)Cl
[13]
  T/C: 93 % of control
[14]
  T/C: 97 % of control
[25]
  T/C: 96 % of control

## COc1ccccc1NC(=O)N(O)C1(C#N)CCCCC1
dose: 100.0 mg/kg/injection, schedule: Q01DX001 (ip), vehicle: carboxymethylcellulose (CMC)
  T/C: 94 % of control
dose: 200.0 mg/kg/injection, schedule: Q01DX001 (ip), vehicle: carboxymethylcellulose (CMC)
  T/C: 93 % of control
dose: 400.0 mg/kg/injection, schedule: Q01DX001 (ip), vehicle: carboxymethylcellulose (CMC)
  T/C: 96 % of control

## c1ccc(-c2ccc3ncccc3c2)cc1
[19]
  T/C: 97 % of control
[20]
  T/C: 100 % of control
[21]
  T/C: 105 % of control

## O=C(O)c1cc(Br)ccc1I
[26]
  T/C: 104 % of control
[27]
  T/C: 97 % of control
[28]
  T/C: 101 % of control

## O=C(O)C12CCC(CO)(CC1)CC2
dose: 50.0 mg/kg/injection, schedule: Q01DX001 (ip), vehicle: saline with Tween-80
  T/C: 103 % of control
dose: 100.0 mg/kg/injection, schedule: Q01DX001 (ip), vehicle: saline with Tween-80
  T/C: 100 % of control
dose: 200.0 mg/kg/injection, schedule: Q01DX001 (ip), vehicle: saline with Tween-80
  T/C: 92 % of control

## Nc1nc(N)c2c(n1)Nc1ccc(Cl)nc1S2
dose: 75.0 mg/kg/injection, schedule: Q01DX009 (ip), vehicle: Klucel (hydroxypropylcellulose) (HPC)
  T/C: 93 % of control
dose: 150.0 mg/kg/injection, schedule: Q01DX009 (ip), vehicle: Klucel (hydroxypropylcellulose) (HPC)
  T/C: 95 % of control

Source: PubChem BioAssay AID248 (DTP/NCI, 2004)
